# Test results reported in paper PMC9481570, “A small molecule antagonist of SMN disrupts the interaction between SMN and RNAP II” (Nature Communications, 2022).
# Columns and labels:
# TDRD2 = target: T1, TDRD2 (Homo sapiens, UniProt Q9Y2W6); assay: ITC binding to TDRD2; details: Fig. 1c
# T1 construct: TDRD2 (aa 327–420); His (N, cleaved yes); made in house; host or cells: E. coli BL21 (DE3) Codon plus RIL
# Text: (§1) The coding DNA fragments of following Tudor domains were cloned into pET28-MHL vector: SMN (aa 82–147), UHRF1 (aa 126–285), SMNDC1 (aa 53–130), TDRD3 (aa 554–611), SND1 (aa 650–910), TDRD2 (aa 327–420), FXR1 (aa 2–132), PHF1 (aa 28–87), SGF29 (aa 115–293), JMJD2A (aa 897–1101), 53BP1 (aa 1483–1606), SETDB1 (aa 190–410), LBR (aa 1–67), ZGPAT (aa 120–271). The coding regions of chromodomain of CBX7 (aa 8–62), PWWP domain of DNMT3A (aa 275–417), WD40 repeats of WDR5 (aa 24–334) and CW domain of ZCWPW2 (aa 21–78) were also subcloned into pET28-MHL vector to generate N-terminally His-tagged fusion protein. The MBT repeats of L3MBTL1 (aa 200–522) and L3MBTL2 (aa 170–625) were subcloned into pET28GST-LIC vector to generate N-terminally GST-His-tagged fusion protein. All the plasmids were generated by ligase independent cloning (Vazyme Biotech, C112 or ABclonal Technology, RK21020). […] The molecular weight of all protein samples was measured by mass spectrometry.
# (§2) For the ITC measurement, the concentrated proteins were diluted into 20 mM Tris-HCl, pH 7.5, 150 mM NaCl (ITC buffer); the lyophilized compounds were dissolved in the same buffer, and the pH value was adjusted by adding 2 M NaOH or 2 M HCl. […] Compound concentrations were calculated from the mass and the volume of the solvent. […]
# LBR = target: T2, LBR (Homo sapiens, UniProt Q14739); assay: ITC binding to LBR; details: Fig. 1c
# T2 construct: LBR (aa 1–67); His (N, cleaved yes); made in house; host or cells: E. coli BL21 (DE3) Codon plus RIL
# T2 sequence (Q14739 1-67): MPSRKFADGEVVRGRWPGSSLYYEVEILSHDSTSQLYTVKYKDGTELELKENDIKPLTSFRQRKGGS
# Text: as §1, §2
# DNMT3A (PWWP) = target: T3, DNMT3A (PWWP) (Homo sapiens, UniProt Q9Y6K1); assay: ITC binding to PWWP domain of DNMT3A; details: Fig. 1c
# T3 construct: DNMT3A (aa 275–417); His (N, cleaved yes); made in house; host or cells: E. coli BL21 (DE3) Codon plus RIL
# T3 sequence (Q9Y6K1 275-417): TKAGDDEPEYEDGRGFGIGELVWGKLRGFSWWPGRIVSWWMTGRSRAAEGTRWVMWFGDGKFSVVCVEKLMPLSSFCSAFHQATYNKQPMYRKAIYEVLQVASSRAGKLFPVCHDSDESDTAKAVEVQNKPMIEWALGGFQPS
# Text: as §1, §2
# SMN_Y109A = target: T4, SMN_Y109A (Homo sapiens, UniProt Q16637, Y109A); assay: ITC binding to SMN Tudor mutant Y109A; details: Fig. 3d
# T4 construct: SMN (aa 82–147); His (N, cleaved yes); made in house; host or cells: E. coli BL21 (DE3) Codon plus RIL
# T4 sequence (Q16637 82-147 Y109A): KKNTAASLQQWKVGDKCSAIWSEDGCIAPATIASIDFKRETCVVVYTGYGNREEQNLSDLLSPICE
# Text: as §1, §2
# TDRD3 = TDRD3 (Homo sapiens, UniProt Q9H7E2); assay: ITC binding to TDRD3; design: TDRD3 (aa 554–611); His (N, cleaved yes); made in house; host or cells: E. coli BL21 (DE3) Codon plus RIL; details: Supplementary Figs. 2 and 11b (VP-ITC); read-out: Kd, ITC binding curve, TDRD3
# Sequence of TDRD3 (Q9H7E2 554-611): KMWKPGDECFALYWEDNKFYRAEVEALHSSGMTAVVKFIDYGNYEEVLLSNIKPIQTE
# Text: as §1, §2
# [1] = tested on: UHRF1_TTD aromatic cage residues mutated to alanine; assay: ITC binding to UHRF1 TTD aromatic cage mutants; details: Supplementary Fig. 9e
# Text: as §1, §2
# T1 sequence (Q9Y2W6 327-420): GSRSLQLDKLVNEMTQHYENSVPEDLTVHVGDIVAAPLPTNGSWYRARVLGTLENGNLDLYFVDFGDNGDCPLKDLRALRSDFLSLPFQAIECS
compound,measurement,setting,value
"Cn1c2c(c(=N)c3c1CCC3)CCC2 [Compound 1, 4-methyl-2,3,4,5,6,7-hexahydrodicyclopenta[b,e]pyridin-8(1H)-imine]",Kd,TDRD2,> 244 µM
same,Kd,LBR,> 244 µM
same,Kd,DNMT3A (PWWP),> 244 µM
same,Kd,SMN_Y109A,15 ± 1 µM
same,Kd,TDRD3,11 ± 1 µM
same,binding affinity to UHRF1_TTD aromatic cage alanine mutants,[1],not affected significantly
